Measured values from the supplement of paper PMC7108870.

Assays:
HEK293sieSTAT3(Y640F) [1] = assay: drug sensitivity score (DSS), viability CellTiter-Glo (DSS (dimensionless)); higher = more growth inhibition; extreme values may be limits of the assay; settings: 72 h; STAT3 variant: Y640F (constitutively active)
In short: (§1)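 A drug sensitivity score, based on the area of the dose-response curve, was calculated in Breeze after normalising values to negative and positive control wells. It came from HEK293 cells carrying a STAT3-dependent luciferase reporter and overexpressing wild-type or mutant STAT3, plated at 20 μl of 100,000 cells/ml onto compounds acoustically pre-plated at 5 concentrations in 10-fold dilutions in 384-well plates. Following 72 hours at 37°C and 5% CO2, CellTox Green fluorescence (485/520 nm) and then CellTiter-Glo luminescence were read on a PHERAstar FS.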

HEK293sieSTAT3(wt) [2] = assay: as above; settings: 72 h; STAT3 variant: wild type
In short: as §1

HEK293sieSTAT3(Y640F) [3] = assay: drug sensitivity score (DSS), cytotoxicity CellTox Green (DSS (dimensionless)); higher = more cytotoxic; extreme values may be limits of the assay; settings: 72 h; STAT3 variant: Y640F (constitutively active)
In short: as §1

HEK293sieSTAT3(wt) [4] = assay: as above; settings: 72 h; STAT3 variant: wild type
In short: as §1

| SMILES | drug sensitivity score (HEK293sieSTAT3(Y640F) [1]) | drug sensitivity score (HEK293sieSTAT3(wt) [2]) | drug sensitivity score (HEK293sieSTAT3(Y640F) [3]) | drug sensitivity score (HEK293sieSTAT3(wt) [4]) |
| --- | --- | --- | --- | --- |
| C=CC(=O)N1CCC[C@@H](n2nc(-c3ccc(Oc4ccccc4)cc3)c3c(N)ncnc32)C1 [Ibrutinib] (top concentration tested 1000 nM) | 0.59 | 2.79 | 0.94 | 3.43 |
| C#Cc1cccc(Nc2ncnc3cc4c(cc23)OCCOCCOCCO4)c1 [Icotinib] (top concentration tested 10000 nM) | 0.77 | 1.11 | 0 | 0.13 |
| CC(=O)[C@]1(O)Cc2c(O)c3c(c(O)c2[C@@H](O[C@H]2C[C@H](N)[C@H](O)[C@H](C)O2)C1)C(=O)c1ccccc1C3=O [Idarubicin] (top concentration tested 1000 nM) | 27.1 | 26.9 | 7.05 | 10.7 |
| COc1cc(C(=O)O)ccc1NC(=O)[C@@H]1N[C@@H](CC(C)(C)C)[C@](C#N)(c2ccc(Cl)cc2F)[C@H]1c1cccc(Cl)c1F [Idasanutlin] (top concentration tested 10000 nM) | 4.92 | 3.61 | 0.11 | 0 |
| CC[C@H](Nc1ncnc2[nH]cnc12)c1nc2cccc(F)c2c(=O)n1-c1ccccc1 [Idelalisib] (top concentration tested 10000 nM) | 1.95 | 2.04 | 0 | 0.23 |
| O=P1(NCCCl)OCCCN1CCCl (stereo not given) [Ifosfamide] (top concentration tested 10000 nM) | 0 | 0 | 0 | 0 |
| Cc1ccc(NC(=O)c2ccc(CN3CCN(C)CC3)cc2)cc1Nc1nccc(-c2cccnc2)n1 [Imatinib] (top concentration tested 10000 nM) | 4.88 | 7.13 | 0.42 | 5.22 |
| CC(C)Cn1cnc2c(N)nc3ccccc3c21 [Imiquimod] (top concentration tested 2500 nM) | 4.36 | 2.55 | 0 | 0 |
| O=C(Nc1ccncc1)C(=O)c1cn(Cc2ccc(Cl)cc2)c2ccccc12 [Indibulin] (top concentration tested 10000 nM) | 10.7 | 16 | 1.19 | 5.57 |
| NC(=O)c1ccc(I)c([N+](=O)[O-])c1 [Iniparib] (top concentration tested 10000 nM) | 0 | 0 | 0 | 0 |
| CC(C)NC[C@@H](C(=O)N1CCN(c2ncnc3c2[C@H](C)C[C@H]3O)CC1)c1ccc(Cl)cc1 [Ipatasertib] (top concentration tested 10000 nM) | 14.6 | 16.7 | 0 | 0.07 |
| CCc1c2c(nc3ccc(OC(=O)N4CCC(N5CCCCC5)CC4)cc13)-c1cc3c(c(=O)n1C2)COC(=O)[C@]3(O)CC [Irinotecan] (top concentration tested 10000 nM) | 12.2 | 14.5 | 2.17 | 6.44 |
| CCC(C)n1ncn(-c2ccc(N3CCN(c4ccc(OCC5COC(Cn6cncn6)(c6ccc(Cl)cc6Cl)O5)cc4)CC3)cc2)c1=O (stereo not given) [Itraconazole] (top concentration tested 5000 nM) | 6.28 | 5.54 | 4.55 | 7.01 |
| C/C(=C\c1csc(C)n1)[C@@H]1C[C@@H]2O[C@]2(C)CCC[C@H](C)[C@H](O)[C@@H](C)C(=O)C(C)(C)[C@@H](O)CC(=O)N1 [Ixabepilone] (top concentration tested 1000 nM) | 6.8 | 8.23 | 0.83 | 3.56 |
| CCCNC(=O)Nc1ccc(Oc2ncnc3cc(OC)c(OC)cc23)cc1Cl [KRN-633] (top concentration tested 2500 nM) | 0.57 | 0.2 | 0 | 0.01 |
| O=C(c1ccc(/C=C/c2n[nH]c3ccccc23)cc1)N1CCNCC1 [KW-2449] (top concentration tested 2500 nM) | 1.97 | 0.3 | 0 | 0.89 |
| O=C(Cc1ccc(-c2ccc(OCCN3CCOCC3)cc2)cn1)NCc1ccccc1 [KX2-391] (top concentration tested 10000 nM) | 19.9 | 23.2 | 4.02 | 19.6 |
| CN[C@@H](C)C(=O)N[C@H](C(=O)N1CCC[C@H]1c1nc(C(=O)c2ccc(F)cc2)cs1)C1CCCCC1 [LCL161] (top concentration tested 25000 nM) | 13.7 | 24.6 | 26.6 | 45 |
| CS(=O)(=O)CCNCc1ccc(-c2ccc3ncnc(Nc4ccc(OCc5cccc(F)c5)c(Cl)c4)c3c2)o1 [Lapatinib] (top concentration tested 1000 nM) | 0 | 0 | 0 | 2.09 |
| Oc1ccc2c(c1)CC[C@H](c1ccccc1)[C@@H]2c1ccc(OCCN2CCCC2)cc1 [Lasofoxifene] (top concentration tested 1000 nM) | 2.47 | 3.21 | 0 | 0 |
| Nc1cccc2c1CN(C1CCC(=O)NC1=O)C2=O (stereo not given) [Lenalidomide] (top concentration tested 100000 nM) | 2.66 | 2.72 | 0 | 0 |
| COc1cc2nccc(Oc3ccc(NC(=O)NC4CC4)c(Cl)c3)c2cc1C(N)=O [Lenvatinib] (top concentration tested 2500 nM) | 2.04 | 2.2 | 0 | 0 |
| C[C@]12O[C@H](C[C@]1(O)CO)n1c3ccccc3c3c4c(c5c6ccccc6n2c5c31)CNC4=O [Lestaurtinib] (top concentration tested 1000 nM) | 9.27 | 8.27 | 7.22 | 4.55 |

| SMILES | drug sensitivity score (HEK293sieSTAT3(Y640F) [1]) | drug sensitivity score (HEK293sieSTAT3(wt) [2]) | drug sensitivity score (HEK293sieSTAT3(Y640F) [3]) | drug sensitivity score (HEK293sieSTAT3(wt) [4]) |
| --- | --- | --- | --- | --- |
| N#Cc1ccc(C(c2ccc(C#N)cc2)n2cncn2)cc1 [Letrozole] (top concentration tested 10000 nM) | 4.14 | 0.66 | 0 | 0.02 |
| c1ccc([C@H]2CN3CCSC3=N2)cc1 [Levamisole] (top concentration tested 10000 nM) | 0 | 0 | 0 | 0 |
| Cc1ccc(F)c(NC(=O)Nc2ccc(-c3cccc4[nH]nc(N)c34)cc2)c1 [Linifanib] (top concentration tested 1000 nM) | 0 | 0 | 0 | 0 |
| C[C@]1(O)C[C@@H](c2nc(-c3ccc4ccc(-c5ccccc5)nc4c3)c3c(N)nccn32)C1 [Linsitinib] (top concentration tested 10000 nM) | 5.71 | 2.31 | 0 | 0 |
| Nc1nc(OCc2cc(Br)cs2)c2[nH]cnc2n1 [Lomeguatrib] (top concentration tested 10000 nM) | 2.48 | 0.39 | 0 | 0.01 |
| O=NN(CCCl)C(=O)NC1CCCCC1 [Lomustine] (top concentration tested 10000 nM) | 0 | 0 | 0 | 0 |
| NC(=O)N1CCC(CC(=O)N2CCC([C@H]3c4ncc(Br)cc4CCc4cc(Cl)cc(Br)c43)CC2)CC1 [Lonafarnib] (top concentration tested 10000 nM) | 6.11 | 8.7 | 0.03 | 1.31 |
| Cc1c(F)cc(C(=O)NC2CC2)cc1-c1ccc(C(=O)NCC(C)(C)C)cn1 [Losmapimod] (top concentration tested 10000 nM) | 0.91 | 0 | 0 | 0 |
| CC[C@H](C)C(=O)O[C@H]1C[C@@H](C)C=C2C=C[C@H](C)[C@H](CC[C@@H]3C[C@@H](O)CC(=O)O3)[C@H]21 [Lovastatin] (top concentration tested 10000 nM) | 0 | 0.12 | 0 | 0 |
| CNC(=O)c1cccc2cc(Oc3ccnc4cc(OCC5(N)CC5)c(OC)cc34)ccc12 [Lucitanib] (top concentration tested 10000 nM) | 1.79 | 5.26 | 0 | 7.65 |
| CCNC(=O)c1noc(-c2cc(C(C)C)c(O)cc2O)c1-c1ccc(CN2CCOCC2)cc1 [Luminespib] (top concentration tested 1000 nM) | 23.7 | 27.8 | 7.6 | 15.9 |
| C=CCn1c(=O)c2cnc(Nc3ccc(N4CCN(C)CC4)cc3)nc2n1-c1cccc(C(C)(C)O)n1 [MK1775] (top concentration tested 10000 nM) | 20.4 | 19.4 | 10.6 | 16.5 |
| O=C(O)CC[C@H]1CC[C@@](c2cc(F)ccc2F)(S(=O)(=O)c2ccc(Cl)cc2)CC1 [MK-0752] (top concentration tested 1000 nM) | 1.59 | 0 | 0 | 0 |
| NC1(c2ccc(-c3nc4ccn5c(=O)[nH]nc5c4cc3-c3ccccc3)cc2)CCC1 [MK-2206] (top concentration tested 1000 nM) | 3.71 | 8.2 | 0 | 0 |
| CN(C[C@@H]1COCCO1)S(=O)(=O)Nc1ccc2ccc3ncc(-c4cnn(C)c4)cc3c(=O)c2c1 [MK-2461] (top concentration tested 10000 nM) | 3.63 | 3.5 | 0 | 0 |
| O=C(c1cccc(Cl)c1F)N1CCN(Cc2cccc(Nc3nccs3)n2)CC1 [MK-8745] (top concentration tested 2500 nM) | 0.11 | 3.99 | 0 | 1.16 |
| Cn1cc(-c2cnn3c(N)c(Br)c([C@@H]4CCCNC4)nc23)cn1 [MK-8776] (top concentration tested 2500 nM) | 5.89 | 6.83 | 1.03 | 3.43 |
| Cc1cnc(-c2ccccc2C(C)C)nc1NCc1ccc(-n2ccnn2)cc1 [ML323] (top concentration tested 10000 nM) | 2.43 | 1.14 | 0 | 0 |
| CC(C)n1nc(-c2ccc3oc(N)nc3c2)c2c(N)ncnc21 [MLN-0128] (top concentration tested 1000 nM) | 15 | 18.7 | 0 | 1.73 |
| O=C(O)c1ccc(Nc2ncc3c(n2)-c2ccc(Cl)cc2C(c2c(F)cccc2F)=NC3)cc1 [MLN-8054] (top concentration tested 10000 nM) | 6.2 | 11 | 0 | 2.73 |
| O=C(Nc1cccc(NC(=O)c2cccc(O)c2O)c1)c1cccc(O)c1O [MST-312] (top concentration tested 10000 nM) | 6.74 | 13.2 | 1.09 | 6.46 |
| CNC(=O)[C@@H](NC(=O)[C@H](CC(C)C)[C@H](O)C(=O)NO)C(C)(C)C [Marimastat] (top concentration tested 10000 nM) | 1.16 | 1.16 | 0 | 0 |
